Reference: US11548903B2, “Bicyclic thiazine and oxazine derivatives as beta-secretase inhibitors and methods of use” (AMGEN INC., priority 2016, dated 2023)

Legend:
Recombinant CatD = Recombinant CatD (Homo sapiens (Human), UniProt P07339); assay: In vitro enzymatic Cathepsin D (CatD) FRET assay; assay type: biochemical; details: read-out: Cat D Enzyme IC50
Method: In Vitro Enzymatic Cathepsin D (CatD) FRET Assay Recombinant CatD was expressed in CHO cells. The assay buffer for CatD was 0.05 M citrate pH 3.5, 10% DMSO final, 5 mM CHAPS. […] The assays was effectively started by the addition of different FRET substrates (20 nM for CatD) and the combination was incubated for one hour. The FRET assay was terminated with by addition of tris buffer, which raises the pH to neutrality, and the fluorescence was determined. The FRET substrate was a peptide with commercially available fluorophore and quencher, on opposite sides of the CatD cleavage site. The CatD substrate peptide sequence was based on sequence #1 of Table 1 from Gulnik et al., FEBS Lett. 413(2):379-384 (1997). Proteolytic cleavage of the FRET substrate released quenching of fluorescence (CatD excitation 500 nm and emission 580 nm). The in vitro CatD FRET assay data for each of the Examples is provided in Table 2, conducted by the first procedure described above. […] Thus, with this surprising selectivity profile, the compounds provided herein are believed to minimize, reduce or completely eliminate any risk of retinal atrophy and abnormal development of the eye and of the retinal pigmented epithelium as it relates to the normal function and activity of CatD.

[1] = tested on: BACE1 (Aβ40 from cells stably expressing Amyloid Precursor Protein); assay: In vitro BACE1 cell-based assay (Aβ40 in conditioned medium, HTRF); details: Aβ40, 24 h incubation; read-out: BACE1 Cell IC50
Method: In Vitro BACE1 Cell-Based Assay The cell-based assay measures inhibition or reduction of Aβ40 in conditioned medium of test compound treated cells expressing amyloid precursor protein. Cells stably expressing Amyloid Precursor Protein (APP) were plated at a density of 45K cells/well in 384 well plates (Corning/BioCoat 354663). The test compounds were then added to cells in 22-point dose response concentrations with the starting concentration being 62.5 μM. The compounds were diluted from stock solutions in DMSO and the final DMSO concentration of the test compounds on cells was 0.625%. The cells were cultivated overnight at 37° C. and 5% CO2 in DMEM supplemented with 10% FBS. After 24 h of incubation with the test compounds, the conditioned media was collected and the Aβ40 levels were determined using HTRF (Homogeneous Time Resolved Fluorescence). […] The HTRF to detect Aβ40 was performed in 384 well plates (Costar 3658). The antibody pair that were used to detect Aβ 40 from cell supernatants were ConfAb40 antibody (Amgen in-house) and biotinylated 6E10 (BIOLEGEND). As an alternative to ConfAb40, a commercially available antibody, Anti-beta Amyloid 1-40 antibody [BDI350] from Abcam, Cambridge, Mass. 02139-1517 (Product code: ab20068), may be used in this assay. […] The conditioned media was incubated with above antibodies and Streptavidin Allophycocyanin Conjugate for 30-60 minutes at 23° C. The final readout was performed on Envision from PerkinElmer.

human recombinant BACE2 = human recombinant BACE2 (Homo sapiens (Human), UniProt Q9Y5Z0); assay: In vitro enzymatic BACE2 FRET assay; assay type: biochemical; details: read-out: BACE2 Enzyme IC50
Method: (§1) In Vitro Enzymatic BACE1 and BACE2 FRET (Fluorescence Resonance Energy Transfer) Assays […] These recombinant proteins were further purified using Ni-NTA affinity chromatography (Qiagen). […] The assay was effectively started by the addition of FRET substrate (50 nM) and the combination was incubated for one hour. The FRET assay was terminated by the addition of tris buffer, which raised the pH to neutrality, and the fluorescence was determined. The FRET substrate was a peptide with commercially available fluorophore and quencher, on opposite sides of the BACE cleavage site. The specific FRET substrate used in this assay was made by Amgen in-house. Commercially available FRET substrates, for example, the FRET substrate offered with the BACE1 FRET Assay Kit sold by ThermoFisher Scientific (Catalog Number P2985), may be used in this assay with the appropriate modifications, which are within the purview of the ability of a person with ordinary skill in the art. Proteolytic cleavage of the FRET substrate released quenching of fluorescence (excitation 488 nm and emission 590 nm).

human recombinant BACE1 = human recombinant BACE1 (Homo sapiens (Human), UniProt P56817); assay: In vitro enzymatic BACE1 FRET assay; assay type: biochemical; details: read-out: BACE1 Enzyme IC50
Method: as §1

Chain of human recombinant BACE1 (P56817 46-501): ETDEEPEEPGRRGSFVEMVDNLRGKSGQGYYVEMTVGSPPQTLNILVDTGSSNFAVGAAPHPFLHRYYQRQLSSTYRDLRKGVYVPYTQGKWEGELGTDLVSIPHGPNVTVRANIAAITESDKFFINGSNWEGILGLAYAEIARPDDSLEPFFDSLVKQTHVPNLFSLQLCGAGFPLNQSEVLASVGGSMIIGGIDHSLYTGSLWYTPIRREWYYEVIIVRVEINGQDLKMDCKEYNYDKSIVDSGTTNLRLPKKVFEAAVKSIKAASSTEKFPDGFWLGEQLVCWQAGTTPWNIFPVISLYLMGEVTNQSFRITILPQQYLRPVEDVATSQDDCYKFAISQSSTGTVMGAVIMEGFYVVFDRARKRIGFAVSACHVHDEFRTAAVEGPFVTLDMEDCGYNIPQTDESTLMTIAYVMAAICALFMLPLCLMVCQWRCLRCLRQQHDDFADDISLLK
Chain of Recombinant CatD (P07339 65-412): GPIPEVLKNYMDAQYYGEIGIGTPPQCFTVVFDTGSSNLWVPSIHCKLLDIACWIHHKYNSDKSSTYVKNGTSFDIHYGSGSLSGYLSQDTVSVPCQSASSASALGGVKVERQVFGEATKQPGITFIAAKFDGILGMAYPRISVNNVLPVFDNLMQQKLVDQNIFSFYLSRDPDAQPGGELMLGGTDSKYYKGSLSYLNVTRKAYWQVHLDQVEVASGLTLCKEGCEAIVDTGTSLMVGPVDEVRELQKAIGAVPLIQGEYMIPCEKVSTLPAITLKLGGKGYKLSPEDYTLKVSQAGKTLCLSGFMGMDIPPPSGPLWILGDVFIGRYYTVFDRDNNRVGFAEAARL
Chain of human recombinant BACE2 (Q9Y5Z0 63-518): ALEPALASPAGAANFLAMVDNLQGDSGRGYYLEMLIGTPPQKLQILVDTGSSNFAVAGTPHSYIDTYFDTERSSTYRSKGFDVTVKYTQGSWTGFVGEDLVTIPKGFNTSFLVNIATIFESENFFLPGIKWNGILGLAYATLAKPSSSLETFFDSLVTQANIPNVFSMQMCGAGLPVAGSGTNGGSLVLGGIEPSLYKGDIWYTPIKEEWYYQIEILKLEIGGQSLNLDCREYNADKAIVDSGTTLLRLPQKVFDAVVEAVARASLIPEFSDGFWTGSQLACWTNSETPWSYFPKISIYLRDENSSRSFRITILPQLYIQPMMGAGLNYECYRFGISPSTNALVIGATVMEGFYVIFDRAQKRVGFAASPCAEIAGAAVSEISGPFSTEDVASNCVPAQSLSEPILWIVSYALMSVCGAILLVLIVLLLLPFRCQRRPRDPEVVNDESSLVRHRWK

Structure (SMILES) | IC50 (Recombinant CatD) | IC50 [1] | IC50 (human recombinant BACE2) | IC50 (human recombinant BACE1)
COC[C@H](C)Oc1cnc(/C(F)=C/c2ccc(F)c([C@]34CN(c5ncc(F)cn5)C[C@H]3CSC(N)=N4)c2)cn1 [Example 114, (4aR,7aS)-7a-(2-fluoro-5-((Z)-2-fluoro-2-(5-(((S)-1-methoxypropan-2-yl)oxy)pyrazin-2-yl)vinyl)phenyl)-6-(5-fluoropyrimidin-2-yl)-4,4a,5,6,7,7a-hexahydropyrrolo[3,4-d][1,3]thiazin-2-amine] | 38700 nM | 2.57 nM | 30.6 nM | 8.96 nM
N#Cc1ccc(/C(F)=C/c2ccc(F)c([C@@]34CO[C@@H](C(F)(F)F)[C@@H]3COC(N)=N4)c2)nc1 (single isomer, unassigned) [Example 143] | 95600 nM | 53500 nM | 140000 nM | 9010 nM
N#Cc1ccc(/C(F)=C/c2ccc(F)c([C@@]34CO[C@@H](C(F)F)[C@@H]3CSC(N)=N4)c2)nc1 [Example 145, 6-((Z)-2-(3-((4aR,5R,7aR)-2-Amino-5-(difluoromethyl)-4a,5-dihydro-4H-furo[3,4-d][1,3]thiazin-7a(7H)-yl)-4-fluorophenyl)-1-fluorovinyl)nicotinonitrile] | > 400000 nM | 41 nM | 1400 nM | 48.5 nM
N#Cc1ccc(/C(F)=C/c2ccc(F)c([C@]34CN(c5ncccn5)C[C@H]3CSC(N)=N4)c2)nc1 [Example 135, 6-((Z)-2-(3-((4aR,7aS)-2-amino-6-(pyrimidin-2-yl)-4,4a,5,6,7,7a-hexahydropyrrolo[3,4-d][1,3]thiazin-7a-yl)-4-fluorophenyl)-1-fluorovinyl)nicotinonitrile] | 106000 nM | 1.8 nM | 22.3 nM | 4.3 nM
COc1nc(N2C[C@H]3CSC(N)=N[C@@]3(c3cc(/C=C(\F)c4ccc(C#N)cn4)ccc3F)C2)ncc1F [Example 134, 6-((Z)-2-(3-((4aR,7aS)-2-amino-6-(5-fluoro-4-methoxypyrimidin-2-yl)-4,4a,5,6,7,7a-hexahydropyrrolo[3,4-d][1,3]thiazin-7a-yl)-4-fluorophenyl)-1-fluorovinyl)nicotinonitrile] | 59300 nM | 0.9 nM | 4.3 nM | 1.4 nM
C#CCOc1cnc(/C(F)=C/c2ccc(F)c([C@]34CN(C(=O)CC)C[C@H]3CSC(N)=N4)c2)cn1 [Example 122, 1-((4aR,7aS)-2-amino-7a-(2-fluoro-5-((Z)-2-fluoro-2-(5-(prop-2-yn-1-yloxy)pyrazin-2-yl)vinyl)phenyl)-4a,5,7,7a-tetrahydropyrrolo[3,4-d][1,3]thiazin-6(4H)-yl)propan-1-one] | 87900 nM | 8.6 nM | 353 nM | 2.36 nM
N#Cc1ccc(/C(F)=C/c2ccc(F)c([C@@]34CO[C@@H](CF)[C@@H]3CSC(N)=N4)c2)nc1 [Example 133, 6-((Z)-2-(3-((4aR,5R,7aR)-2-amino-5-(fluoromethyl)-4a,5,7,7a-tetrahydro-4H-furo[3,4-d][1,3]thiazin-7a-yl)-4-fluorophenyl)-1-fluorovinyl)nicotinonitrile] | 139000 nM | 2000 nM | 28000 nM | 1220 nM
C#CCOc1cnc(/C(F)=C/c2ccc(F)c([C@]34CN(c5ncccn5)C[C@H]3CSC(N)=N4)c2)cn1 [Example 120, (4aR,7aS)-7a-(2-fluoro-5-((Z)-2-fluoro-2-(5-(prop-2-yn-1-yloxy)pyrazin-2-yl)vinyl)phenyl)-6-(pyrimidin-2-yl)-4,4a,5,6,7,7a-hexahydropyrrolo[3,4-d][1,3]thiazin-2-amine] | 6300 nM | 0.76 nM | 34 nM | 0.186 nM
N#Cc1ccc(/C(F)=C/c2ccc(F)c([C@]34CO[C@H](C(F)F)[C@H]3CSC(N)=N4)c2)nc1 [Example 144, 6-((Z)-2-(3-((4aS,5S,7aS)-2-amino-5-(difluoromethyl)-4a,5,7,7a-tetrahydro-4H-furo[3,4-d][1,3]thiazin-7a-yl)-4-fluorophenyl)-1-fluorovinyl)nicotinonitrile] | > 400000 nM | 18.1 nM | 741 nM | 21.6 nM
N#Cc1ccc(/C(F)=C/c2ccc(F)c([C@@]34CO[C@@H](C(F)(F)F)[C@@H]3COC(N)=N4)c2)nc1 (racemic) [Example 141, 6-((Z)-2-(3-((4aR,5S,7aS)-2-amino-5-(trifluoromethyl)-4a,5,7,7a-tetrahydro-4H-furo[3,4-d][1,3]oxazin-7a-yl)-4-fluorophenyl)-1-fluorovinyl)nicotinonitrile and 6-((Z)-2-(3-((4aS,5R,7aR)-2-amino-5-(trifluoromethyl)-4a,5,7,7a-tetrahydro-4H-furo[3,4-d][1,3]oxazin-7a-yl)-4-fluorophenyl)-1-fluorovinyl)nicotinonitrile] | 237000 nM | 160 nM | 9720 nM | 86.2 nM
NC1=N[C@@]2(c3cc(/C=C(\F)c4ccc(Cl)cn4)ccc3F)COC[C@H]2CS1 [Example 105, (4aS,7aS)-7a-(5-((Z)-2-(5-chloropyridin-2-yl)-2-fluorovinyl)-2-fluorophenyl)-4a,5,7,7a-tetrahydro-4H-furo[3,4-d][1,3]thiazin-2-amine] | 181000 nM | 129 nM | 56.9 nM | 64.4 nM
Cc1noc(COc2cnc(/C(F)=C/c3ccc(F)c([C@]45CN(c6ncc(F)cn6)C[C@H]4CSC(N)=N5)c3)cn2)n1 (stereo in doubt) [Example 110, (4aR,7aS)-7a-(2-fluoro-5-((Z)-2-fluoro-2-(5-((3-methyl-1,2,4-oxadiazol-5-yl)methoxy)pyrazin-2-yl)vinyl)phenyl)-6-(5-fluoropyrimidin-2-yl)-4,4a,5,6,7,7a-hexahydropyrrolo[3,4-d][1,3]thiazin-2-amine] | 4500 nM | 4.11 nM | 85.5 nM | 1.56 nM
NC1=N[C@@]2(c3cc(/C=C(\F)c4ccc(F)cn4)ccc3F)CO[C@H](C(F)(F)F)[C@H]2CS1 [Example 132, (4aS,5S,7aS)-7a-(2-fluoro-5-((Z)-2-fluoro-2-(5-fluoropyridin-2-yl)vinyl)phenyl)-5-(trifluoromethyl)-4a,5,7,7a-tetrahydro-4H-furo[3,4-d][1,3]thiazin-2-amine] | > 400000 nM | 112 nM | 427 nM | 426 nM
